Data from patent publication US20060069132A1, “Azolecarboxamide herbicides” (priority 2004, published 2006).

Legend:
pigweed = assay: Test C pre-/postemergence herbicide test; assay type: in vivo, Amaranthus retroflexus; settings: for Plant response rating, Pigweed: scale 0 to 100
Procedure, shortened: (§1)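 Seeds were planted and sprayed preemergence with test chemicals in a non-phytotoxic solvent mixture containing surfactant; postemergence treatments went onto plants 2 to 18 cm tall (1- to 4-leaf stage). After 12 to 14 days in a greenhouse, injury was rated visually against untreated controls on a 0–100 scale.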

eastern black nightshade = assay: Test C pre-/postemergence herbicide test; assay type: in vivo, Solanum ptycanthum; settings: preemergence
Procedure, shortened: as §1

johnsongrass = assay: Test C pre-/postemergence herbicide test; assay type: in vivo, Sorghum halepense
Procedure, shortened: as §1

redroot pigweed = assay: Test A pre-/postemergence herbicide test; assay type: in vivo, Amaranthus retroflexus; settings: for Plant response rating, Pigweed: Postemergence; for Pigweed plant response rating: Preemergence
Procedure, shortened: (§2)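 Seeds sown in sandy loam received a preemergence directed soil spray of compound in non-phytotoxic solvent with surfactant; postemergence plants (2–10 cm, one- to two-leaf stage) were sprayed to runoff at the same time. After ~10 days in greenhouse, injury was rated visually versus untreated controls (0 = no effect, 100 = complete control).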

corn = assay: Test C pre-/postemergence herbicide test; assay type: in vivo, Zea mays
Procedure, shortened: as §1

cocklebur = assay: Test C pre-/postemergence herbicide test; assay type: in vivo, Xanthium strumarium
Procedure, shortened: as §1

Surinam grass = assay: Test C pre-/postemergence herbicide test; assay type: in vivo, Urochloa decumbens; settings: for Plant response rating, Surinam Grass: scale 0 to 100
Procedure, shortened: as §1

velvetleaf = assay: Test C pre-/postemergence herbicide test; assay type: in vivo, Abutilon theophrasti; settings: scale 0 to 100
Procedure, shortened: as §1

morningglory [1] = assay: Test A pre-/postemergence herbicide test; assay type: in vivo, Ipomoea spp.; settings: for Plant response rating, Morningglory: Postemergence; for Morningglory plant response rating: Preemergence
Procedure, shortened: as §2

chickweed = assay: Test C postemergence herbicide test; assay type: in vivo, Stellaria media
Procedure, shortened: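 Postemergence sprays were applied to plants 2 to 18 cm tall (1- to 4-leaf stage); in the flooded paddy test, barnyardgrass was grown to the 2-leaf stage. After 12 to 14 days in a greenhouse, injury was visually rated against untreated controls on a 0–100 scale (100 = complete control).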

morningglory [2] = assay: Test C pre-/postemergence herbicide test; assay type: in vivo, Ipomoea coccinea; design: key to Plant response rating, Morningglory: 0 = no effect, 100 = complete control; settings: for Plant response rating, Morningglory: scale 0 to 100
Procedure, shortened: as §1

[3] = 31 g ai/ha, preemergence, scale 0 to 100
[4] = 125 g ai/ha, scale 0-100, preemergence
[5] = Postemergence, 125 g ai/ha, scale 0 to 100, 0 no effect, 100 complete control
[6] = postemergence, 31 g ai/ha, scale 0 to 100
[7] = postemergence, 62 g ai/ha, scale 0 to 100
[8] = 500 g ai/ha, 0 to 100 scale, 0 no effect, 100 complete control
[9] = 2000 g ai/ha, 0 to 100 scale, 0 no effect, 100 complete control
[10] = 500 g ai/ha, visual rating, 0 to 100 scale (0 no effect, 100 complete control)
[11] = postemergence, 16 g ai/ha, scale 0 to 100

Q: Which “Plant response rating, Pigweed” value (pigweed; 31 g ai/ha, preemergence) does the source give for `C=Cn1nc(C(C)(C)C)cc1C(=O)Nc1cccc(C(=O)NCC)c1` [Compound 33] here?
A: 30

Q: What about the “Plant response rating (0 = no effect, 100 = complete control), Pigweed” value (pigweed; 62 g ai/ha, preemergence) of the same molecule?
A: 50

Q: What about the “Plant response rating, Pigweed” value (pigweed; postemergence, 125 g ai/ha) of the same molecule?
A: 100

Q: What about the “Plant response rating, Pigweed” value (pigweed; postemergence, 31 g ai/ha) of the same molecule?
A: 90

Q: And the “Plant response rating, Pigweed” value (pigweed; postemergence, 62 g ai/ha)?
A: 100

Q: What about the “Plant response rating, Nightshade” value (eastern black nightshade; 31 g ai/ha, scale 0 to 100) of the same molecule?
A: 10

Q: And the “Plant response rating (0 = no effect, 100 = complete control), Nightshade” value (eastern black nightshade; 62 g ai/ha)?
A: 60

Q: And the “Plant response rating, Johnsongrass” value (johnsongrass; [3])?
A: 20

Q: What about the “Plant response rating (0 = no effect, 100 = complete control), Johnsongrass” value (johnsongrass; 62 g ai/ha, preemergence) of the same molecule?
A: 20

Q: And the “Plant response rating, Johnsongrass” value (johnsongrass; [4])?
A: 80

Q: What about the “Plant response rating, Johnsongrass” value (johnsongrass; [5]) of the same molecule?
A: 90

Q: And the “Plant response rating, Johnsongrass” value (johnsongrass; [6])?
A: 70

Q: And the “Plant response rating, Johnsongrass” value (johnsongrass; [7])?
A: 90

Q: What about the “Plant response rating, Pigweed” value (redroot pigweed; [8]) of the same molecule?
A: 85

Q: What about the “Plant response rating, Pigweed” value (redroot pigweed; [9]) of the same molecule?
A: 85

Q: What about the “Pigweed plant response rating” value (redroot pigweed; [10]) of the same molecule?
A: 100

Q: What about the “Pigweed plant response rating” value (redroot pigweed; [9]) of the same molecule?
A: 100

Q: And the “Plant response rating, Corn” value (corn; [3])?
A: 0

Q: And the “Plant response rating (0 = no effect, 100 = complete control), Corn” value (corn; 62 g ai/ha, preemergence)?
A: 0

Q: And the “Plant response rating, Corn” value (corn; [4])?
A: 0

Q: What about the “Plant response rating, Corn” value (corn; [5]) of the same molecule?
A: 40

Q: What about the “Plant response rating, Corn” value (corn; [6]) of the same molecule?
A: 40

Q: What about the “Plant response rating, Corn” value (corn; [7]) of the same molecule?
A: 40

Q: What about the “Plant response rating, Cocklebur” value (cocklebur; [3]) of the same molecule?
A: 0

Q: What about the “Plant response rating (0 = no effect, 100 = complete control), Cocklebur” value (cocklebur; 62 g ai/ha, preemergence) of the same molecule?
A: 0

Q: And the “Plant response rating, Cocklebur” value (cocklebur; [4])?
A: 30

Q: And the “Plant response rating, Cocklebur” value (cocklebur; [5])?
A: 70

Q: What about the “Plant response rating, Cocklebur” value (cocklebur; [11]) of the same molecule?
A: 20

Q: What about the “Plant response rating, Cocklebur” value (cocklebur; [7]) of the same molecule?
A: 50

Q: And the “Plant response rating, Surinam Grass” value (Surinam grass; 31 g ai/ha, preemergence)?
A: 20

Q: What about the “Plant response rating (0 = no effect, 100 = complete control), Surinam Grass” value (Surinam grass; 62 g ai/ha, preemergence) of the same molecule?
A: 20

Q: What about the “Plant response rating, Surinam Grass” value (Surinam grass; postemergence, 125 g ai/ha) of the same molecule?
A: 50

Q: What about the “Plant response rating, Surinam Grass” value (Surinam grass; postemergence, 31 g ai/ha) of the same molecule?
A: 50

Q: And the “Plant response rating, Surinam Grass” value (Surinam grass; postemergence, 62 g ai/ha)?
A: 50

Q: And the “Plant response rating, Velvetleaf” value (velvetleaf; 31 g ai/ha, preemergence)?
A: 0

Q: And the “Plant response rating, Velvetleaf” value (velvetleaf; postemergence, 31 g ai/ha)?
A: 60

Q: What about the “Plant response rating, Velvetleaf” value (velvetleaf; postemergence, 62 g ai/ha) of the same molecule?
A: 90

Q: And the “Plant response rating, Morningglory” value (morningglory [1]; [8])?
A: 10

Q: What about the “Plant response rating, Morningglory” value (morningglory [1]; [9]) of the same molecule?
A: 25

Q: What about the “Morningglory plant response rating” value (morningglory [1]; [10]) of the same molecule?
A: 35

Q: And the “Morningglory plant response rating” value (morningglory [1]; [9])?
A: 70

Q: What about the “Plant response rating, Chickweed” value (chickweed; [5]) of the same molecule?
A: 100

Q: What about the “Plant response rating, Chickweed” value (chickweed; [11]) of the same molecule?
A: 30

Q: And the “Plant response rating, Chickweed” value (chickweed; [6])?
A: 40

Q: And the “Plant response rating, Chickweed” value (chickweed; [7])?
A: 90

Q: What about the “Plant response rating, Morningglory” value (morningglory [2]; 31 g ai/ha, preemergence) of the same molecule?
A: 0

Q: And the “Plant response rating (0 = no effect, 100 = complete control), Morningglory” value (morningglory [2]; 62 g ai/ha, preemergence)?
A: 0

Q: What about the “Plant response rating, Morningglory” value (morningglory [2]; postemergence, 125 g ai/ha) of the same molecule?
A: 30

Q: And the “Plant response rating, Morningglory” value (morningglory [2]; postemergence, 31 g ai/ha)?
A: 20

Q: And the “Plant response rating, Morningglory” value (morningglory [2]; postemergence, 62 g ai/ha)?
A: 20
